Molecules are shown by their SMILES.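 Assay format: 96-well plates, 48-hour exposure. Here, GI50 denotes the concentration required for 50% inhibition of growth.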 Calls of active or inactive are those of the source. Rule as the data show it: active = GI50 up to about 1.1 µM and inactive = higher.

Assay in all cases: growth of human tumour cells (NCI), 48 h
In assay [1] the test system is A498.
Assay [2] concerns A549.
The test system of assay [3] is EKVX.
In assay [4] the test system is HCT-15.
Assay [5] relates to HOP-62.
The subject of assay [6] is HOP-92.
Assay [7] relates to HT-29.
For assay [8], the system named is KM-20L2.
Assay [9] concerns KM12.
Assay [10] has as its system LXFL 529.
Assay [11] relates to MOLT-4.
Assay [12] concerns SF-268.
Assay [13] relates to SF-539.
The test system of assay [14] is SK-MEL-28.
Assay [15] relates to SNB-75.
Assay [16] relates to UACC-62.
Assay [17] relates to XF498.

In the case of `Cc1cccc(C(C)C)c1N1C(=O)C(=O)C(c2nc3ccccc3o2)C(=O)C1=O`, the GI50 in [1] is > 100 µM (inactive); in [2], > 100 µM (inactive); in assay [3] it was 42.7 µM (inactive); in [4], 35.5 µM; in [5], > 100 µM (inactive); in assay [6], > 100 µM (inactive). The GI50 in [7] was 56.2 µM (inactive); in assay [8] it was 35.4 µM (inactive); in assay [9], > 100 µM (inactive); in assay [10] it was 61.1 µM (inactive); in assay [11], 24.7 µM (inactive); in [12] it was > 100 µM (inactive). In addition, the GI50 in assay [13] was > 100 µM (inactive); in assay [14], > 100 µM (inactive); in [15], 26.9 µM (inactive); in [16], 61 µM (inactive); in assay [17] it was 21.1 µM (inactive).

`COc1cccc(Cc2c3cc(OC)ccc3cc[n+]2C)c1`: the GI50 in assay [1] was > 100 µM (inactive); in assay [2], > 100 µM (inactive); in assay [3], > 100 µM (inactive); in [4], over 100 µM; in assay [5], > 100 µM (inactive); in assay [7] it was 30.3 µM (inactive). Further, the GI50 was 65.5 µM (inactive) in assay [8]; 40.5 µM (inactive) in assay [9]; 36.4 µM (inactive) in assay [10]; > 100 µM (inactive) in assay [11]; 36.2 µM (inactive) in [12]; 33.9 µM (inactive) in assay [14]. The GI50 is 32.8 µM (inactive) in assay [15] and 12.4 µM (inactive) in assay [17].

Turning to `CCOC(=O)[C@H]1Nc2ccccc2C2c3ccccc3CC21` (stereo partly drawn), the GI50 in assay [1] was 24.9 µM (inactive); in assay [2], 78.3 µM (inactive); in assay [4], 49 µM; in assay [5], > 100 µM (inactive); in [7] it was 19 µM (inactive); in assay [8], 39.4 µM (inactive). In addition, the GI50 was 71 µM (inactive) in assay [9]; 41.6 µM (inactive) in [10]; 24.4 µM (inactive) in assay [11]; > 100 µM (inactive) in [12]; > 100 µM (inactive) in assay [13]; 34.2 µM (inactive) in [14]. Besides, the GI50 in [15] was 39.5 µM (inactive); in assay [16], 53.3 µM (inactive); in assay [17], > 100 µM (inactive).

In the case of `Cc1nc2ccncc2[nH]1`, the GI50 in assay [1] is > 100 µM (inactive); in assay [2] it was > 100 µM (inactive); in assay [3] it was > 100 µM (inactive); in assay [4], over 100 µM; in [5], > 100 µM (inactive); in assay [7] it was > 100 µM (inactive). The GI50 in assay [8], in [10], in assay [11], in assay [12], in assay [13] and in assay [14] was > 100 µM (inactive) each time. Further, the GI50 in assay [15] was 24.8 µM (inactive); in [16], > 100 µM (inactive); in assay [17] it was 58.6 µM (inactive).

On to `N#Cc1cccc(N2C(=O)c3ccc(C(=O)c4ccc5c(c4)C(=O)N(c4cccc(C#N)c4)C5=O)cc3C2=O)c1`, for which the GI50 in [1] is > 100 µM (inactive); in assay [2] it was > 100 µM (inactive); in assay [3], > 100 µM (inactive); in [4], over 100 µM; in assay [5], > 100 µM (inactive); in assay [6] it was 59 µM (inactive). In addition, the GI50 in [7], in assay [8], in [9], in assay [10], in [11] and in assay [12] was > 100 µM (inactive) each time. For the same molecule, the GI50 in assay [13] was > 100 µM (inactive); in assay [15], 35.6 µM (inactive); in assay [16] it was > 100 µM (inactive); in assay [17] it was > 100 µM (inactive).

As for `COC(=O)CCC(NC(=S)N/N=C/c1ccccn1)C(=O)OC` (stereo not drawn), the GI50 in assay [1] was > 100 µM (inactive); in assay [2] it was > 100 µM (inactive); in [3] it was > 100 µM (inactive); in assay [4], over 100 µM; in assay [5] it was > 100 µM (inactive); in [6], 84.5 µM (inactive). Moreover, the GI50 in assay [7], in assay [8], in assay [9], in [10], in assay [11] and in [12] was > 100 µM (inactive) throughout. Also, the GI50 in [13], in assay [14], in assay [15], in [16] and in assay [17] was > 100 µM (inactive) each time.

Consider `COc1cc2c(cc1O)[C@H](C)C(c1ccc(Cl)cc1)O2` (stereo partly drawn), for which the GI50 in [1] was 11.9 µM (inactive); in assay [2] it was 24.9 µM (inactive); in assay [3], 23 µM (inactive); in [4], 13.1 µM; in [5], 22.6 µM (inactive); in assay [6], 17.3 µM (inactive). For the same molecule, the GI50 in assay [7] is 30.9 µM (inactive); in [8] it was 23.1 µM (inactive); in assay [9] it was 25.2 µM (inactive); in [10], 17.2 µM (inactive); in assay [11], 15.3 µM (inactive); in assay [12], 20.7 µM (inactive). The GI50 is 57.9 µM (inactive) in assay [13]; 28.6 µM (inactive) in assay [14]; 2.72 µM (inactive) in assay [15]; 21.2 µM (inactive) in assay [16]; 15.5 µM (inactive) in [17].

Take `Cc1c(C(=O)CC(=O)C(=O)Nc2ccccc2C(F)(F)F)[n+]([O-])c2ccccc2[n+]1[O-]`: the GI50 in [1] was > 100 µM (inactive); in assay [2], 24.2 µM (inactive); in assay [3], 19.5 µM (inactive); in assay [4], 16.8 µM; in [5] it was 44 µM (inactive); in [6] it was 16.2 µM (inactive). Besides, the GI50 in assay [7] was 18.5 µM (inactive); in [8], 33.7 µM (inactive); in [9], 19.5 µM (inactive); in assay [10], 20.8 µM (inactive); in assay [12], 21.2 µM (inactive); in [13], 23.2 µM (inactive). Besides, the GI50 in assay [14] is 27.4 µM (inactive); in assay [16], 18 µM (inactive); in assay [17], 9.44 µM (inactive).

`CC1C[C@@H]2C(=O)NC(=O)[C@@H]2c2c1c1ccccc1n2C` (stereo partly drawn): the GI50 in assay [1] is > 100 µM (inactive); in assay [2], > 100 µM (inactive); in assay [3] it was > 100 µM (inactive); in assay [4] it was over 100 µM; in assay [5], > 100 µM (inactive); in assay [6], > 100 µM (inactive). In addition, the GI50 in assay [7], in [8], in assay [9], in assay [10], in assay [11] and in assay [12] was > 100 µM (inactive) throughout. Further, the GI50 in [13], in assay [14], in [15], in [16] and in [17] was > 100 µM (inactive) throughout.

Regarding `O=C1OC(CC(=O)c2ccc(Cl)cc2)C(Cl)=C1Cl` (stereo not drawn), the GI50 in assay [1] is > 100 µM (inactive); in assay [2], > 100 µM (inactive); in assay [3], > 100 µM (inactive); in assay [4], over 100 µM; in [5], > 100 µM (inactive); in assay [6], > 100 µM (inactive). The GI50 in [7] is > 100 µM (inactive); in assay [8], > 100 µM (inactive); in assay [9] it was > 100 µM (inactive); in assay [10], > 100 µM (inactive); in [11] it was 39.2 µM (inactive); in [12] it was > 100 µM (inactive). Moreover, the GI50 in assay [13], in assay [14], in [15], in assay [16] and in assay [17] was > 100 µM (inactive) each time.

In the case of `CC12CCC(=O)N1[C@@H](c1ccccc1)[C@@H](c1ccccc1)O2` (stereo partly drawn), the GI50 in assay [1] was > 100 µM (inactive); in assay [2] it was > 100 µM (inactive); in assay [4], over 100 µM; in assay [5] it was > 100 µM (inactive); in assay [6] it was 84.7 µM (inactive); in assay [7], > 100 µM (inactive). In addition, the GI50 in assay [8], in [9], in assay [10], in [11], in assay [12] and in assay [13] was > 100 µM (inactive) each time. Also, the GI50 in assay [15] was > 100 µM (inactive); in assay [16] it was 42.5 µM (inactive); in assay [17], > 100 µM (inactive).

As to `COc1ccc(/C(=N/NC(N)=O)C2(O)C(=O)Nc3ccc([N+](=O)[O-])cc32)cc1` (stereo not drawn), the GI50 in assay [1] was 29.2 µM (inactive); in assay [2], 55.6 µM (inactive); in [3], > 100 µM (inactive); in [4], 20.7 µM; in assay [5], 28.2 µM (inactive); in assay [6], 22.4 µM (inactive). For the same molecule, the GI50 in assay [7] was 19.4 µM (inactive); in [8] it was 22.3 µM (inactive); in [9], 22.6 µM (inactive); in [10], 18.3 µM (inactive); in assay [11], 19.6 µM (inactive); in assay [12], 18.5 µM (inactive). The GI50 in [13] was 15.7 µM (inactive); in assay [14], 20 µM (inactive); in assay [15], 20.6 µM (inactive); in [16], 20 µM (inactive); in assay [17] it was 16.5 µM (inactive).

For the molecule `CSc1nc2c(nc(C)c(=O)n2C2OCC(OC(C)=O)C(OC(C)=O)C2OC(C)=O)c(=O)[nH]1` (stereo not drawn), the GI50 in assay [1] is > 100 µM (inactive); in [2], > 100 µM (inactive); in assay [3] it was > 100 µM (inactive); in assay [4], over 100 µM; in [5] it was > 100 µM (inactive); in [6] it was 3.76 µM (inactive). Moreover, the GI50 in assay [7], in assay [8], in [9], in [10], in assay [11] and in [12] was > 100 µM (inactive) in each case. For the same molecule, the GI50 in assay [14], in [15], in assay [16] and in assay [17] was > 100 µM (inactive) throughout.

The values above are taken from ChEMBL document CHEMBL1201862, “PubChem BioAssay data set” (2004).
